Results taken from PubChem BioAssay (NCI).
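Five concentrations, 48 hours, 96-well plates. The concentration for 50% growth inhibition is given as GI50. TGI denotes the concentration required for complete inhibition of growth.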

Key:
Assay in all cases: inhibition of tumour cell growth, NCI panel, 48 h
DU-145 prostate = tested on: DU-145 prostate
NCI-H522 lung = tested on: NCI-H522 lung
ACHN renal = tested on: ACHN renal
HCT-15 colon = tested on: HCT-15 colon
OVCAR-8 ovarian = tested on: OVCAR-8 ovarian
RPMI-8226 leukemia = tested on: RPMI-8226 leukemia
IGROV1 ovarian = tested on: IGROV1 ovarian
COLO 205 colon = tested on: COLO 205 colon
PC-3 prostate = tested on: PC-3 prostate
SR leukemia = tested on: SR leukemia
HOP-62 NSCLC = tested on: HOP-62 NSCLC
CAKI-1 renal = tested on: CAKI-1 renal
UACC-62 melanoma = tested on: UACC-62 melanoma
A549 NSCLC = tested on: A549 NSCLC
UACC-257 melanoma = tested on: UACC-257 melanoma
T-47D breast = tested on: T-47D breast
HOP-92 NSCLC = tested on: HOP-92 NSCLC
OVCAR-3 ovarian = tested on: OVCAR-3 ovarian
TK-10 renal = tested on: TK-10 renal
SK-OV-3 ovarian = tested on: SK-OV-3 ovarian
HCC-2998 colon = tested on: HCC-2998 colon
OVCAR-5 ovarian = tested on: OVCAR-5 ovarian
CCRF-CEM leukemia = tested on: CCRF-CEM leukemia
K-562 leukemia = tested on: K-562 leukemia
MDA-MB-231 breast = tested on: MDA-MB-231 breast
UO-31 renal = tested on: UO-31 renal
SK-MEL-2 melanoma = tested on: SK-MEL-2 melanoma
NCI-H23 lung = tested on: NCI-H23 lung
SN12C renal = tested on: SN12C renal
SNB-75 CNS = tested on: SNB-75 CNS
RXF 393 renal = tested on: RXF 393 renal
EKVX NSCLC = tested on: EKVX NSCLC
MALME-3M melanoma = tested on: MALME-3M melanoma
HCT-116 colon = tested on: HCT-116 colon
HS 578T breast = tested on: HS 578T breast
SW-620 colon = tested on: SW-620 colon
NCI-H460 lung = tested on: NCI-H460 lung
A498 renal = tested on: A498 renal
MDA-MB-435 = tested on: MDA-MB-435
SNB-19 CNS = tested on: SNB-19 CNS
NCI-H226 lung = tested on: NCI-H226 lung
SK-MEL-5 melanoma = tested on: SK-MEL-5 melanoma
SF-295 CNS = tested on: SF-295 CNS
KM12 colon = tested on: KM12 colon
SF-539 CNS = tested on: SF-539 CNS
OVCAR-4 ovarian = tested on: OVCAR-4 ovarian
HL-60(TB) leukemia = tested on: HL-60(TB) leukemia
M14 melanoma = tested on: M14 melanoma
MCF7 breast = tested on: MCF7 breast
BT-549 breast = tested on: BT-549 breast
786-0 renal = tested on: 786-0 renal
HT29 colon = tested on: HT29 colon
SK-MEL-28 melanoma = tested on: SK-MEL-28 melanoma
NCI/ADR-RES ovarian = tested on: NCI/ADR-RES ovarian
LOX IMVI melanoma = tested on: LOX IMVI melanoma
SF-268 CNS = tested on: SF-268 CNS
U251 CNS = tested on: U251 CNS
MOLT-4 leukemia = tested on: MOLT-4 leukemia

Compound: S=C(Nc1ccccc1)c1ccccn1
- GI50 (DU-145 prostate): 53 µM
- TGI (DU-145 prostate): > 100 µM
- GI50 (NCI-H522 lung): 14 µM
- TGI (NCI-H522 lung): > 100 µM
- GI50 (ACHN renal): 50.6 µM
- TGI (ACHN renal): > 100 µM
- GI50 (HCT-15 colon): 40.3 µM
- TGI (HCT-15 colon): > 100 µM
- GI50 (OVCAR-8 ovarian): 75.3 µM
- TGI (OVCAR-8 ovarian): > 100 µM
- GI50 (RPMI-8226 leukemia): 41.7 µM
- TGI (RPMI-8226 leukemia): > 100 µM
- GI50 (IGROV1 ovarian): 42.4 µM
- TGI (IGROV1 ovarian): > 100 µM
- GI50 (COLO 205 colon): 9.34 µM
- TGI (COLO 205 colon): > 100 µM
- GI50 (PC-3 prostate): 54.7 µM
- TGI (PC-3 prostate): > 100 µM
- GI50 (SR leukemia): 25.5 µM
- TGI (SR leukemia): > 100 µM
- GI50 (HOP-62 NSCLC): 81.9 µM
- TGI (HOP-62 NSCLC): > 100 µM
- GI50 (CAKI-1 renal): 40.3 µM
- TGI (CAKI-1 renal): > 100 µM
- GI50 (UACC-62 melanoma): 70.7 µM
- TGI (UACC-62 melanoma): > 100 µM
- GI50 (A549 NSCLC): > 100 µM
- TGI (A549 NSCLC): > 100 µM
- GI50 (UACC-257 melanoma): > 100 µM
- TGI (UACC-257 melanoma): > 100 µM
- GI50 (T-47D breast): > 100 µM
- TGI (T-47D breast): > 100 µM
- GI50 (HOP-92 NSCLC): 54.3 µM
- TGI (HOP-92 NSCLC): > 100 µM
- GI50 (OVCAR-3 ovarian): 31.6 µM
- TGI (OVCAR-3 ovarian): > 100 µM
- GI50 (TK-10 renal): > 100 µM
- TGI (TK-10 renal): > 100 µM
- GI50 (SK-OV-3 ovarian): > 100 µM
- TGI (SK-OV-3 ovarian): > 100 µM
- GI50 (HCC-2998 colon): > 100 µM
- TGI (HCC-2998 colon): > 100 µM
- GI50 (OVCAR-5 ovarian): > 100 µM
- TGI (OVCAR-5 ovarian): > 100 µM
- GI50 (CCRF-CEM leukemia): 3.97 µM
- TGI (CCRF-CEM leukemia): 40.4 µM
- GI50 (K-562 leukemia): 48.4 µM
- TGI (K-562 leukemia): > 100 µM
- GI50 (MDA-MB-231 breast): 51.2 µM
- TGI (MDA-MB-231 breast): > 100 µM
- GI50 (UO-31 renal): 25.5 µM
- TGI (UO-31 renal): > 100 µM
- GI50 (SK-MEL-2 melanoma): > 100 µM
- TGI (SK-MEL-2 melanoma): > 100 µM
- GI50 (NCI-H23 lung): 75 µM
- TGI (NCI-H23 lung): > 100 µM
- GI50 (SN12C renal): 95.9 µM
- TGI (SN12C renal): > 100 µM
- GI50 (SNB-75 CNS): 54.5 µM
- TGI (SNB-75 CNS): > 100 µM
- GI50 (RXF 393 renal): 40.3 µM
- TGI (RXF 393 renal): > 100 µM
- GI50 (EKVX NSCLC): 42.9 µM
- TGI (EKVX NSCLC): > 100 µM
- GI50 (MALME-3M melanoma): > 100 µM
- TGI (MALME-3M melanoma): > 100 µM
- GI50 (HCT-116 colon): 51.3 µM
- TGI (HCT-116 colon): > 100 µM
- GI50 (HS 578T breast): > 100 µM
- TGI (HS 578T breast): > 100 µM
- GI50 (SW-620 colon): 59.4 µM
- TGI (SW-620 colon): > 100 µM
- GI50 (NCI-H460 lung): 63.2 µM
- TGI (NCI-H460 lung): > 100 µM
- GI50 (A498 renal): > 100 µM
- TGI (A498 renal): > 100 µM
- GI50 (MDA-MB-435): 80.6 µM
- TGI (MDA-MB-435): > 100 µM
- GI50 (SNB-19 CNS): > 100 µM
- TGI (SNB-19 CNS): > 100 µM
- GI50 (NCI-H226 lung): > 100 µM
- TGI (NCI-H226 lung): > 100 µM
- GI50 (SK-MEL-5 melanoma): 69.2 µM
- TGI (SK-MEL-5 melanoma): > 100 µM
- GI50 (SF-295 CNS): 32.8 µM
- TGI (SF-295 CNS): > 100 µM
- GI50 (KM12 colon): > 100 µM
- TGI (KM12 colon): > 100 µM
- GI50 (SF-539 CNS): > 100 µM
- TGI (SF-539 CNS): > 100 µM
- GI50 (OVCAR-4 ovarian): 52.4 µM
- TGI (OVCAR-4 ovarian): > 100 µM
- GI50 (HL-60(TB) leukemia): 31.3 µM
- TGI (HL-60(TB) leukemia): > 100 µM
- GI50 (M14 melanoma): 28 µM
- TGI (M14 melanoma): 97.1 µM
- GI50 (MCF7 breast): > 100 µM
- TGI (MCF7 breast): > 100 µM
- GI50 (BT-549 breast): 73.9 µM
- TGI (BT-549 breast): > 100 µM
- GI50 (786-0 renal): > 100 µM
- TGI (786-0 renal): > 100 µM
- GI50 (HT29 colon): 50.1 µM
- TGI (HT29 colon): > 100 µM
- GI50 (SK-MEL-28 melanoma): > 100 µM
- TGI (SK-MEL-28 melanoma): > 100 µM
- GI50 (NCI/ADR-RES ovarian): 52.1 µM
- TGI (NCI/ADR-RES ovarian): > 100 µM
- GI50 (LOX IMVI melanoma): 28.2 µM
- TGI (LOX IMVI melanoma): > 100 µM
- GI50 (SF-268 CNS): 77.3 µM
- TGI (SF-268 CNS): > 100 µM
- GI50 (U251 CNS): 38 µM
- TGI (U251 CNS): > 100 µM
- GI50 (MOLT-4 leukemia): 42.1 µM
- TGI (MOLT-4 leukemia): > 100 µM
